Experimental data reported in US8268998B2, “Pyrrolotriazine kinase inhibitors” (Bristol-Myers Squibb Company, priority 2006, dated 2012).

How the values were obtained:
TrkB = molecular target: T1, TrkB (Homo sapiens, UniProt Q16620); assay: TrkB tyrosine kinase inhibition assay (recombinant enzyme, polyGluTyr phosphorylation, 33P); assay type: biochemical; settings: kinase domain of human TrkB (amino acids 526-838), substrate PGT 0.1 mg/ml, 30 uM ATP, 1 hour at 30° C.
T1 construct: The kinase domain of the human TrkB receptor (amino acids 526-838); His; purchased Invitrogen; host or cells: insect cells
Method: The ability of compounds of the invention to inhibit tyrosine kinase activity of TrkB may be measured using a recombinant enzyme in an assay that measures the ability of compounds to inhibit the phosphorylation of the exogenous substrate, polyGluTyr (PGT, 4:1). The kinase domain of the human TrkB receptor (amino acids 526-838) is expressed in insect cells as a histidine (His)-fusion protein and is commercially available from Invitrogen™. The enzyme assay is performed in a 96-well plate. Test compounds are first dissolved in dimethylsulfoxide (DMSO) and then serially-diluted in a 96-well plate. The serially-diluted compounds are transferred to the 96-well assay plate so that the final concentration of DMSO in the enzyme assay is 1.64%. All assay components are diluted in phosphorylation buffer (20 mm MOPS, 10 mM MgCl2, 1 mM EDTA, 0.015% Brij-35, 0.1 mg/ml BSA, 0.0025% Beta-Mercaptoethanol). The recombinant enzyme is added to the assay plate containing test compound and the reaction is initiated with a substrate solution containing a final concentration of 0.1 mg/ml PGT, 30 uM ATP, and 0.008mCi/ml ^33P-gammaATP (3000 Ci/mmol). After a 1 hour incubation at 30° C., the reaction is terminated with 10% TCA and incubated at 4° C. for 1 hour. The reaction is filtered onto a Unifilter® GF/C™ filter plate that has been pre-soaked with 0.1M NaPyrophosphate. Microscint-20 is then added to the dried filter plate and the captured ^33P-phosphorylated PGT is quantitated on a microscintillation plate counter (TopCount•NXT™). Inhibition of the kinase enzymatic activity by the test compound is detected by a reduction in scintillation, and the concentration of compound that is required to inhibit the signal by 50% is reported as the IC50 value for the test compound.

TrkA = molecular target: T2, TrkA (Homo sapiens, UniProt P04629); assay: TrkA tyrosine kinase inhibition assay (recombinant enzyme, polyGluTyr phosphorylation, 33P); assay type: biochemical; settings: kinase domain of human TrkA, substrate PGT 0.1 mg/ml, 30 uM ATP, 1 hour at 30° C.
T2 construct: The kinase domain of the human TrkA receptor is expressed in Sf9 insect cells as a histidine (His)-fusion protein; His; made in house; host or cells: Sf9 insect cells (baculovirus)
Text: The ability of compounds of the invention to inhibit tyrosine kinase activity of TrkA may be measured using a recombinant enzyme in an assay that measures the ability of compounds to inhibit the phosphorylation of the exogenous substrate, polyGluTyr (PGT, 4:1). The kinase domain of the human TrkA receptor is expressed in Sf9 insect cells as a histidine (His)-fusion protein using a baculovirus expression system. The protein is purified from the lysates of these cells using an Ni-NTA affinity column. After the recombinant enzyme is purified, it is activated by incubation with cold ATP. The enzyme assay is performed in a 96-well plate. Test compounds are first dissolved in dimethylsulfoxide (DMSO) and then serially-diluted in a 96-well plate. The serially-diluted compounds are transferred to the 96-well assay plate so that the final concentration of DMSO in the enzyme assay is 1.64%. All assay components are diluted in phosphorylation buffer (20 mm MOPS, 10 mM MgCl2, 1 mM EDTA, 0.015% Brij-35, 0.1 mg/ml BSA, 0.0025% Beta-Mercaptoethanol). The recombinant enzyme is added to the assay plate containing test compound and the reaction is initiated with a substrate solution containing a final concentration of 0.1 mg/ml PGT, 30 uM ATP, and 0.008mCi/ml ^33P-gammaATP (3000Ci/mmol). After a 1 hour incubation at 30° C., the reaction is terminated with 10% TCA and incubated at 4° C. for 1 hour. The reaction is filtered onto a Unifilter® GF/C™ filter plate that has been presoaked with 0.1M NaPyrophosphate. Microscint-20 is then added to the dried filter plate and the captured ^33P-phosphorylated PGT is quantitated on a microscintillation plate counter (TopCount•NXT™). Inhibition of the kinase enzymatic activity by the test compound is detected by a reduction in scintillation, and the concentration of compound that is required to inhibit the signal by 50% is reported as the IC50 value for the test compound.

T1 sequence (Q16620 510-822): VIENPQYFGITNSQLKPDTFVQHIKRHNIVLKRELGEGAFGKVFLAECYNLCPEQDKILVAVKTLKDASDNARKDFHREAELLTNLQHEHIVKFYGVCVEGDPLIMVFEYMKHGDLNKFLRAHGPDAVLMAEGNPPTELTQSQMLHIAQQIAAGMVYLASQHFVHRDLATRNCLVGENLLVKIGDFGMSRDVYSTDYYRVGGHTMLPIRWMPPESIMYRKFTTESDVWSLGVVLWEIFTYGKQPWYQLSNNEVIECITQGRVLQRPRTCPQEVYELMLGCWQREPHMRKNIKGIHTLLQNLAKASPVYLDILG
T2 sequence (P04629 510-781 limits assumed): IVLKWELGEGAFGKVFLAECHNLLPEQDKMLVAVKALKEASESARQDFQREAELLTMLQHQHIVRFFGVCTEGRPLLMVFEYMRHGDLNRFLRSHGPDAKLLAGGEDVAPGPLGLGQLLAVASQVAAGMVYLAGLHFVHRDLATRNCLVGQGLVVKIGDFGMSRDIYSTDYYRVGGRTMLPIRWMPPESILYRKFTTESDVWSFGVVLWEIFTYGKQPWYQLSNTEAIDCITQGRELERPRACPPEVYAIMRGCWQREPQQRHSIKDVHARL

IC50 (TrkB) [nM]	IC50 (TrkA) [nM]	SMILES
0.8	0.3	C[C@H](Nc1nc(Nc2cc(C3CC3)[nH]n2)nn2cccc12)c1ccc(F)cc1 [Example 1, N^2-(5-cyclopropyl-1H-pyrazol-3-yl)-N^4-((1S)-1-(4-fluorophenyl)ethyl)pyrrolo[2,1-f][1,2,4]triazine-2,4-diamine]
2	0.5	CCCC[C@H](C)Nc1nc(Nc2cc(C3CC3)[nH]n2)nn2cccc12 [Example 21, N^2-(5-cyclopropyl-1H-pyrazol-3-yl)-N^4-((1S)-1-methylpentyl)pyrrolo[2,1-ƒ][1,2,4]triazine-2,4-diamine]
64	36	CC(C)[C@@H](CO)Nc1nc(Nc2cc(C3CC3)[nH]n2)nn2cccc12 [Example 24, (2S)-2-((2-((5-cyclopropyl-1H-pyrazol-3-yl)amino)pyrrolo[2,1-ƒ][1,2,4]triazin-4-yl)amino)-3-methyl-1-butanol]
3	2	C[C@H](Nc1nc(Nc2cc(C3CC3)[nH]n2)nn2cccc12)C1CCCCC1 [Example 32, N^4-((1S)-1-cyclohexylethyl)-N^2-(5-cyclopropyl-1H-pyrazol-3-yl)pyrrolo[2,1-ƒ][1,2,4]triazine-2,4-diamine]
